Patent US12123023B2, “Methods for generating stem cell-derived β cells and methods of use thereof” (President and Fellows of Harvard College, priority 2014, dated 2024)

Tested on: SC-β cells
Assay: FACS analysis of marker expression in cells differentiated to SC-β cells (end of Step 6, versus DMSO control)
Format: cell-based, human
Text: FIG. 4A is a schematic illustrating an exemplary method for generating SC-β cells according to an embodiment of the present invention, e.g., by contacting a cell population directed to differentiate to SC-β cells under conditions that promote cell clustering with an agent that decreases the level and/or activity of rho-associated protein kinase (Rock inhibitor), a TGF-β superfamily member (e.g., Activin A), and a protein kinase inhibitor (e.g., staurosporine) during the steps indicated.
The SC-β cells generated in accordance with the methods of the present invention can be used in various assays to identify novel drugs that improve β cell function, survival, or proliferation, cell therapies (e.g., for treating diabetes and/or metabolic disorders), and in the construction of artificial islets and/or an artificial pancreas.

[1] = S4 cells contacted during Step 5, cells at end of Step 6, versus control (DMSO)

CN[C@@H]1C[C@H]2O[C@@](C)([C@@H]1OC)n1c3ccccc3c3c4c(c5c6ccccc6n2c5c31)C(=O)NC4 [staurosporine]
endocrine population purity (FACS) [1]: near pure endocrine population | percentage of NKX6.1+, C-Peptide+ cells (FACS) [1]: higher percentage of NKX6.1+, C-Peptide+ cells | marker expression at differentiation stages S4, S5, S6 (FACS) (S4 cells contacted during Step 5 together with the Rock inhibitor, in the absence of Activin A): maintain marker expression
